According to publication PMC5856125 (Journal of the American Chemical Society, 2018):

Target: lipoteichoic acid synthase (LtaS) (Staphylococcus aureus, UniProt Q2G093)
Assay: LTA polymerization in proteoliposomes with purified LtaS, anti-LTA blot
Assay type: biochemical

Sequence of lipoteichoic acid synthase (LtaS) (Q2G093 whole entry): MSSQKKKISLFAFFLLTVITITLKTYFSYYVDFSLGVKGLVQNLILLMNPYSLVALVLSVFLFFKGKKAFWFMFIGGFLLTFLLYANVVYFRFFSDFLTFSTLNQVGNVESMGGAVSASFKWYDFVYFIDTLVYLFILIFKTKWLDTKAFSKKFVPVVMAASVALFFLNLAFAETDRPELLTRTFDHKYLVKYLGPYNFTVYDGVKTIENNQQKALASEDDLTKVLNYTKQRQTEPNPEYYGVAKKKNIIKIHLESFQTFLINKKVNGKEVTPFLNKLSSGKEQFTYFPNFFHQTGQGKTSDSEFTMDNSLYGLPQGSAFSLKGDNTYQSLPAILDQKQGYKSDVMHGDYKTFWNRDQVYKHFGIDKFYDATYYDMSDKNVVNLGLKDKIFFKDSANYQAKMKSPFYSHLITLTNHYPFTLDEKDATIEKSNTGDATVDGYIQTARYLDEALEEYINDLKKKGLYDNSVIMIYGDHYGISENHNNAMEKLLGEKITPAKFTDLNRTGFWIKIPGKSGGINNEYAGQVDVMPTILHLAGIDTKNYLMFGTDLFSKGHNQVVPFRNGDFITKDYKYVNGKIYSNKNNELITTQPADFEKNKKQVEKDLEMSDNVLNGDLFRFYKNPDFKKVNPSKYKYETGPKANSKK

Q: How did the IC50 turn out when `Nc1c(/N=N/c2ccc(-c3ccc(/N=N/c4cc(S(=O)(=O)O)c5ccccc5c4N)cc3)cc2)cc(S(=O)(=O)O)c2ccccc12` [compound 1, Congo red] was run?
A: The IC50 was roughly 2000 nM.
